ChEMBL document CHEMBL1201862, “PubChem BioAssay data set” (2004)
The source made the active and inactive calls.

Assays:
[1] = biological target: T1, Rac GTPase-activating protein 1 (Homo sapiens, UniProt Q9H0H5); experiment: blockers of MgcRacGAP-driven Rac1 GTP hydrolysis – biochemical, ADP Hunter fluorescence, primary and confirmatory, confirmation (AID 624330); format: functional
T1 sequence (Q9H0H5 whole entry): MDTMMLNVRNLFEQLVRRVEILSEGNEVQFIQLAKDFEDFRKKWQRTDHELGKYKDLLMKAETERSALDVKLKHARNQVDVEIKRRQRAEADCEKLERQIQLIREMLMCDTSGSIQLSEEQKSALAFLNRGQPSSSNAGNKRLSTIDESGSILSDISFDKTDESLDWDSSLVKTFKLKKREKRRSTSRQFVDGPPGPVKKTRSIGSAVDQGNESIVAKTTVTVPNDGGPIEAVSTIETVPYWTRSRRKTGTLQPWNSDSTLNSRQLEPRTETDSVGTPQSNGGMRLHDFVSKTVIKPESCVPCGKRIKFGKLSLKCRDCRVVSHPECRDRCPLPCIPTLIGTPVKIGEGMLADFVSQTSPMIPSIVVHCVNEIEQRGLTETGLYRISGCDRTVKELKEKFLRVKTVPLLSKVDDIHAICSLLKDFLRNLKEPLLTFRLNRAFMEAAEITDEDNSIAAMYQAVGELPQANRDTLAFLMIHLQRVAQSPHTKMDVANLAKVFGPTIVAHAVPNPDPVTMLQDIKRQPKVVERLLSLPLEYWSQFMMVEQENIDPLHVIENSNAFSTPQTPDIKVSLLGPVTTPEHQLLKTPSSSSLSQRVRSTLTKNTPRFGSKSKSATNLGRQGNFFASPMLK

[2] = viability of HCT116 lacking mutant beta-catenin – cell-based, human colon tumor, dose response (AID 1045); format: functional;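 also: HCT116 colon tumor cells with beta catenin knocked out; cells exposed to compound for 60 hours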
[3] = viability of PTEN-deleted HCT116 cells – cell-based, HCT116 PTEN knockout, dose response (AID 1047); format: functional;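 also: HCT116 colon tumor cells with PTEN knocked out; cells exposed to compound for 60 hours before readout; potency for loss of cell viability measured by luminescence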
[4] = Luminescence Cell-Based Dose Retest to Confirm Inhibitors of Cancer Stem Cells. [Related pubchem assays (depositor defined):AID2717, AID2721]; format: functional; details: Homo sapiens
[5] = Luminescence Cell-Based Dose Response HTS to Identify Activators of Luciferase Translation or Activity in H4 […] Cells. [Related pubchem assays: 1829 (Project Summary), 1814 (Primary HTS)]; format: functional
H4 = experiment: Luminescence Cell-Based Dose Response HTS to Identify Activators of 5'UTR Stem-Loop Driven Prion Protein mRNA Translation in H4 Neuroglioblastoma Cells. [Related pubchem assays: 1829 (Project Summary), 1814 (Primary HTS)]; format: functional; details: Homo sapiens
Protein skinhead-1 = biological target: T2, Protein skinhead-1 (Caenorhabditis elegans, UniProt P34707); format: functional
T2 sequence (P34707 whole entry): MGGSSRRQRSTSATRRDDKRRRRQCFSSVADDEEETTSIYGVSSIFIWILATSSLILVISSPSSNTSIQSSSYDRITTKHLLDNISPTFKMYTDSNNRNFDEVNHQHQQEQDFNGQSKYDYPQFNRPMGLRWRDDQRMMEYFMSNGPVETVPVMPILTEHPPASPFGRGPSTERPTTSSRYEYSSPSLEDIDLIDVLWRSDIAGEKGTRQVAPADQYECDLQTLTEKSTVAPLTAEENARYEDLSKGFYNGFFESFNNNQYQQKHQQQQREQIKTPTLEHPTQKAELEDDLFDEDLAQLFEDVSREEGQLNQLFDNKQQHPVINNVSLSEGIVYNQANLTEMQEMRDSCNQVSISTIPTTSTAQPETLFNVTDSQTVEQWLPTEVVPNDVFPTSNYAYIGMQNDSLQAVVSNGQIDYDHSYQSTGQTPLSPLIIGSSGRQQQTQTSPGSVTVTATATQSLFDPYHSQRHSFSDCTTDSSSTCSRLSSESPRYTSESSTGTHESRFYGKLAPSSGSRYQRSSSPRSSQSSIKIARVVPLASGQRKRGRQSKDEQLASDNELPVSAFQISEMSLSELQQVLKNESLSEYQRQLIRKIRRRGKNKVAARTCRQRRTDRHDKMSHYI

cells = format: functional
[6] = NIH3T3 cell viability loss – ATP luminescence, mouse fibroblasts, counter-screen, dose response (AID 2010); format: functional, cell-based;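 also: cells exposed to compound for about 90 hours before reading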
[7] = NIH-3T3 fibroblast cytotoxicity, dose response, cytotoxicity control, cell-based, fluorescence, Alamar Blue, secondary assay (AID 2327); format: functional;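 also: NIH-3T3 mouse fibroblasts cultured with fluconazole at 8 µg/mL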
[8] = Trypanosoma cruzi growth suppression in host cells – NIH3T3 host cells, beta-gal luminescence, confirmation (AID 2044); format: functional, cell-based;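 also: intracellular parasites grown in NIH/3T3 mouse fibroblasts as host cells; luminescent beta-galactosidase reporter signal from transgenic T. cruzi replicating inside host cells; inhibitors lower the luminescence signal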
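For AC50 in this document: cells exposed to compound for roughly 70 hours or longer before luminescence read.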

With CCCCn1c(S)nc2c(=O)n(C)c(=O)n(C)c21 the IC50 [1] was 20.9 µM (active).

With CCCSc1nc(O)c2cnn(-c3ccc(C)cc3)c2n1 the EC50 [2] was 20.7 µM (active) and the EC50 [3] was 22.2 µM (active).

With COc1ccc(-c2csc(NC(=S)NC(=O)/C=C/c3ccco3)n2)cc1OC the EC50 [2] was 3.11 µM (active), the EC50 [3] was 1.62 µM (active) and the AC50 [4] was 0.853 µM (active).

For COc1ccc(-c2cc3ccccc3n2CC(O)CN2CCCCC2)cc1 (stereo unspecified), the IC50 [1] was 110 µM (active).

With c1ccc(CSc2nnc(-c3c[nH]c4ccccc34)o2)cc1 the EC50 [5] was 28.7 µM (active) and the EC50 (H4) was 70.2 µM (active).

In the case of O=C(Nc1csc(Cl)c1)c1ccccc1, the IC50 (Protein skinhead-1) is reported as > 100 µM (inactive).

In the case of O=C(NCc1cccnc1)NC1(C(F)(F)F)Oc2ccccc2O1, the EC50 [2] is reported as 23.3 µM (active) and the EC50 [3] is reported as 25.1 µM (active).

With CC(C)c1ccc(C(=O)Nc2ccc(CN3CCOCC3)cc2)cc1 the IC50 (Protein skinhead-1) was 3.18 µM (active).

With Nc1ccccc1Nc1ccccc1 the IC50 (cells) was 1.28 µM (active) and the IC50 [1] was 36.1 µM (active).

With CCc1nc2c(OCc3ccc(C(F)(F)F)cc3)cccn2c1N(C)C(=O)c1ccncc1 the IC50 (Protein skinhead-1) was 4.62 µM (active).

In the case of O=C1CCC(C(=O)OCC(=O)N2N=C3/C(=C\c4ccccc4)CCCC3C2c2ccccc2)N1 (stereo unspecified), the IC50 (Protein skinhead-1) is reported as > 100 µM (inactive).

For CCOc1cc(N2CCOCC2)c(OCC)cc1NC(=O)Cc1ccccc1OC, the EC50 [2] was 21.2 µM (active) and the EC50 [3] was 23.9 µM (active).

With O=C(COc1ccccc1F)N/N=C1\CCCc2ccccc21 the EC50 [5] was 24.8 µM (active) and the EC50 (H4) was 53.3 µM (inconclusive).

With O=[N+]([O-])c1ccc(COc2ccc(CN3CCCC3)cc2)cc1 the IC50 (Protein skinhead-1) was 3.75 µM (active).

For COc1ccc(NC2CCCN(C(=O)CCC3=NNC(=O)CC3)C2)cc1 (stereo unspecified), the IC50 [1] was 126 µM (active).

With CN(C)C(CNC(=O)CCc1nc2cc(Cl)ccc2n(Cc2ccccc2)c1=O)c1ccccc1 (stereo unspecified) the IC50 (Protein skinhead-1) was 58.1 µM (inactive).

With Cc1ccc(C)c(NS(=O)(=O)c2ccc3c(c2)Cc2cc(S(=O)(=O)Nc4cc(C)ccc4C)ccc2-3)c1 the EC50 [2] was 11.2 µM (active) and the EC50 [3] was 9.63 µM (active).

In the case of O=C(Nc1cc2c3c(c1)C1CCCC1CN3CC1CCCC21)c1ccccc1 (stereo unspecified), the EC50 [6] is reported as > 60 µM (not active), the EC50 [7] is reported as > 160 µM (inactive) and the EC50 [8] is reported as 0.78 µM (active).

In the case of CC1=NNC(=O)C1Br (stereo unspecified), the IC50 [1] is reported as 55.9 µM (active).

For CN1/C(=C/C=N/NC(=O)c2ccc([N+](=O)[O-])cc2)C(C)(C)c2ccccc21, the EC50 [2] was 23.2 µM (active) and the EC50 [3] was 24.3 µM (active).

In the case of COc1c(C(=O)Nc2nccs2)ccc2ccccc12, the IC50 (Protein skinhead-1) is reported as 17.1 µM (active).

With COc1ccccc1N1CCN(CCCOc2ccc(F)cc2)CC1 the IC50 [1] was 122 µM (active).

For CC(C)C(CCNCc1ccccn1)c1ccc(Cl)cc1 (stereo unspecified), the IC50 (Protein skinhead-1) was > 100 µM (inactive).

For Cc1ccc(-n2c(=S)[nH]c3sc4c(c3c2=O)CCC4)cc1, the IC50 [1] was 85.6 µM (active).

With COc1cc(/C=N/NC(=O)C(=O)Nc2ccccn2)ccc1O the IC50 [1] was 22.6 µM (active).

For COc1cc(SC)ccc1C(=O)Nc1nccs1, the IC50 (Protein skinhead-1) was 53.6 µM (inactive).

In the case of Nc1ccc(C(=O)N/N=C/c2ccc(N3CCOCC3)s2)cc1, the IC50 [1] is reported as 16.5 µM (active).

In the case of Cn1cc(C(=O)NCCN2CCN(c3cccc(Cl)c3)CC2)c2c3ccccc3n(C)c2c1=O, the EC50 [2] is reported as 63 µM (active) and the EC50 [3] is reported as 46.8 µM (active).

With Cc1noc(C)c1S(=O)(=O)N1CCCC(C(=O)NCCc2ccc(Cl)cc2)C1 (stereo unspecified) the IC50 (Protein skinhead-1) was > 100 µM (inactive).

In the case of Clc1ccc(-c2cn3cc(Br)ccc3n2)cc1Cl, the IC50 (Protein skinhead-1) is reported as > 100 µM (inactive).

For CCN(CC)c1ccc(S(=O)(=O)N2CCOCC2)cc1NC(=O)COC(=O)/C=C/c1ccc(O)c(OC)c1, the IC50 [1] was 108 µM (active).

For CCn1c(CC(=O)Nc2ccc(C)c(Cl)c2)nnc1SCC(=O)Nc1nc(C)cs1, the EC50 [2] was 27.2 µM (active) and the EC50 [3] was 25.4 µM (active).
